According to ChEMBL document CHEMBL3102795, “Discovery of 1-oxa-4,9-diazaspiro[5.5]undecane-based trisubstituted urea derivatives as highly potent soluble epoxide hydrolase inhibitors and orally active drug candidates for treating of chronic kidney diseases” (Bioorg Med Chem Lett, 2014):
Converted amounts (≈) assume the structure as drawn. The source made the active and inactive calls. No cut-off for these calls is given here.

Test system: not listed separately
Assay: Tmax in rat at 1 mg/kg, po
Format: ADME, organism-based
Parameters: dose 1 mg/kg, route oral
Settings: in vivo

Row | Structure (SMILES) | Tmax
1 | Cc1cnc(C(=O)N2CCC3(CC2)CN(C(=O)Nc2ccc(OC(F)(F)F)cc2)CCO3)cn1 | 1 h
2 | O=C(Nc1ccc(OC(F)(F)F)cc1)N1CCOC2(CCN(C(=O)c3ccccc3F)CC2)C1 | 1 h
3 | Cc1cc(C(=O)N2CCC3(CC2)CN(C(=O)Nc2ccc(OC(F)(F)F)cc2)CCO3)no1 | 2 h

Test system: not listed separately
Assay: Solubility of the compound in simulated intestinal fluid compliant with Japanese pharmacopeia
Format: ADME
Settings: not given

Row | Structure (SMILES) | solubility
4 | O=C(Nc1ccc(OC(F)(F)F)cc1)N1CCCC2(CCN(C(=O)c3c(F)cccc3F)CC2)C1 | 9 µg/mL (≈ 18.1 µM)
5 | O=C(Nc1ccc(C(F)(F)F)cc1)N1CCOC2(CCN(C(=O)c3ccc(Cl)cc3)CC2)C1 | 23 µg/mL (≈ 47.7 µM)
6 | Cc1cnc(C(=O)N2CCC3(CC2)CN(C(=O)Nc2ccc(OC(F)(F)F)cc2)CCO3)cn1 | 92 µg/mL (≈ 192 µM)
7 | O=C(Cc1ccccn1)N1CCC2(CC1)CN(C(=O)Nc1ccc(OC(F)(F)F)cc1)CCO2 | 90 µg/mL (≈ 188 µM)
8 | O=C(Nc1ccc(OC(F)(F)F)cc1)N1CCOC2(CCN(C(=O)c3ccccc3F)CC2)C1 | 62 µg/mL (≈ 129 µM)
9 | Cc1cc(C(=O)N2CCC3(CC2)CN(C(=O)Nc2ccc(OC(F)(F)F)cc2)CCO3)no1 | 83 µg/mL (≈ 177 µM)

Test system: not listed separately
Assay: Solubility of the compound in simulated gastric fluid compliant with Japanese pharmacopeia
Format: ADME
Settings: not given

Row | Structure (SMILES) | solubility
10 | O=C(Nc1ccc(OC(F)(F)F)cc1)N1CCCC2(CCN(C(=O)c3c(F)cccc3F)CC2)C1 | 9 µg/mL (≈ 18.1 µM)
11 | O=C(Nc1ccc(C(F)(F)F)cc1)N1CCOC2(CCN(C(=O)c3ccc(Cl)cc3)CC2)C1 | 29 µg/mL (≈ 60.2 µM)
12 | Cc1cnc(C(=O)N2CCC3(CC2)CN(C(=O)Nc2ccc(OC(F)(F)F)cc2)CCO3)cn1 | 91 µg/mL (≈ 190 µM)
13 | O=C(Cc1ccccn1)N1CCC2(CC1)CN(C(=O)Nc1ccc(OC(F)(F)F)cc1)CCO2 | 92 µg/mL (≈ 192 µM)
14 | O=C(Nc1ccc(OC(F)(F)F)cc1)N1CCOC2(CCN(C(=O)c3ccccc3F)CC2)C1 | 71 µg/mL (≈ 147 µM)
15 | Cc1cc(C(=O)N2CCC3(CC2)CN(C(=O)Nc2ccc(OC(F)(F)F)cc2)CCO3)no1 | 84 µg/mL (≈ 179 µM)

Test system: not listed separately
Assay: Half life in rat at 0.2 mg/kg, iv
Format: ADME, organism-based
Parameters: dose 0.2 mg/kg, route intravenous
Settings: in vivo

Row | Structure (SMILES) | half-life
16 | Cc1cnc(C(=O)N2CCC3(CC2)CN(C(=O)Nc2ccc(OC(F)(F)F)cc2)CCO3)cn1 | 1.53 h
17 | O=C(Nc1ccc(OC(F)(F)F)cc1)N1CCOC2(CCN(C(=O)c3ccccc3F)CC2)C1 | 2.63 h
18 | Cc1cc(C(=O)N2CCC3(CC2)CN(C(=O)Nc2ccc(OC(F)(F)F)cc2)CCO3)no1 | 1.17 h

Test system: not listed separately
Assay: AUC (0 to infinity) in rat at 0.2 mg/kg, iv
Format: ADME, organism-based
Parameters: time infinity, dose 0.2 mg/kg, route intravenous
Settings: plasma

Row | Structure (SMILES) | AUC(0-inf)
19 | Cc1cnc(C(=O)N2CCC3(CC2)CN(C(=O)Nc2ccc(OC(F)(F)F)cc2)CCO3)cn1 | 111 ng·h/mL
20 | O=C(Nc1ccc(OC(F)(F)F)cc1)N1CCOC2(CCN(C(=O)c3ccccc3F)CC2)C1 | 173 ng·h/mL
21 | Cc1cc(C(=O)N2CCC3(CC2)CN(C(=O)Nc2ccc(OC(F)(F)F)cc2)CCO3)no1 | 90.2 ng·h/mL

Target: T1, Bifunctional epoxide hydrolase 2 (Homo sapiens, UniProt P34913)
T1 sequence (P34913 whole entry): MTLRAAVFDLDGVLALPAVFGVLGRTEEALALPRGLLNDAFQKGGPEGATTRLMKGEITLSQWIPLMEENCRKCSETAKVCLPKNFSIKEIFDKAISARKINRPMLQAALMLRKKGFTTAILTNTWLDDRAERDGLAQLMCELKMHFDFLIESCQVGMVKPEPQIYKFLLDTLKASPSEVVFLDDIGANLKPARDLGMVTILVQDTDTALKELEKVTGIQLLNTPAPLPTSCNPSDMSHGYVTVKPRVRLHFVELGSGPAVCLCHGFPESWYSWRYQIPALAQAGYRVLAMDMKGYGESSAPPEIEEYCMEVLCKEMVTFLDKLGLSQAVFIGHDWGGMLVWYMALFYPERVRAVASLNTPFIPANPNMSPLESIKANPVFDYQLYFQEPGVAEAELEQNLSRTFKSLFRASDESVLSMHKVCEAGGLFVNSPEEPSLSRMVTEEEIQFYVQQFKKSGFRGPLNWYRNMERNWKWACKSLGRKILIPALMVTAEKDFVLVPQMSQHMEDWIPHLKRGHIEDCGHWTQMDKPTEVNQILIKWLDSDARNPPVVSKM
Assay: Inhibition of human recombinant sEH expressed in baculovirus infected insect Sf9 cells using cyano(6-methoxynaphthalen-2-yl)methyl trans-[(3-phenyloxiran-2-yl)methyl] carbonate as substrate preincubated for 30 mins followed by substrate addition measured after 20 to 45 mins by fluorescence assay
Settings: not given

Row | Structure (SMILES) | IC50
22 | O=C(Nc1ccc(OC(F)(F)F)cc1)N1CCCC2(CCN(C(=O)c3c(F)cccc3F)CC2)C1 | 0.125 nM
23 | O=C(Nc1ccc(C(F)(F)F)cc1)N1CCOC2(CCN(C(=O)c3ccc(Cl)cc3)CC2)C1 | 1 nM
24 | Cc1cnc(C(=O)N2CCC3(CC2)CN(C(=O)Nc2ccc(OC(F)(F)F)cc2)CCO3)cn1 | 0.9 nM
25 | O=C(Cc1ccccn1)N1CCC2(CC1)CN(C(=O)Nc1ccc(OC(F)(F)F)cc1)CCO2 | 0.7 nM
26 | O=C(Nc1ccc(OC(F)(F)F)cc1)N1CCOC2(CCN(C(=O)c3ccccc3F)CC2)C1 | 1.1 nM
27 | Cc1cc(C(=O)N2CCC3(CC2)CN(C(=O)Nc2ccc(OC(F)(F)F)cc2)CCO3)no1 | 1.4 nM

Test system: not listed separately
Assay: Drug uptake in rat at 0.2 mg/kg, iv at 5 mins
Format: ADME, organism-based
Parameters: dose 0.2 mg/kg, route intravenous
Settings: in vivo, read-out: Drug uptake

Row | Structure (SMILES) | concentration at 5 min
28 | Cc1cnc(C(=O)N2CCC3(CC2)CN(C(=O)Nc2ccc(OC(F)(F)F)cc2)CCO3)cn1 | 134 ng/mL
29 | O=C(Nc1ccc(OC(F)(F)F)cc1)N1CCOC2(CCN(C(=O)c3ccccc3F)CC2)C1 | 71 ng/mL
30 | Cc1cc(C(=O)N2CCC3(CC2)CN(C(=O)Nc2ccc(OC(F)(F)F)cc2)CCO3)no1 | 77.7 ng/mL

Target: T2, Bifunctional epoxide hydrolase 2 (Rattus norvegicus, UniProt P80299)
T2 sequence (P80299 whole entry): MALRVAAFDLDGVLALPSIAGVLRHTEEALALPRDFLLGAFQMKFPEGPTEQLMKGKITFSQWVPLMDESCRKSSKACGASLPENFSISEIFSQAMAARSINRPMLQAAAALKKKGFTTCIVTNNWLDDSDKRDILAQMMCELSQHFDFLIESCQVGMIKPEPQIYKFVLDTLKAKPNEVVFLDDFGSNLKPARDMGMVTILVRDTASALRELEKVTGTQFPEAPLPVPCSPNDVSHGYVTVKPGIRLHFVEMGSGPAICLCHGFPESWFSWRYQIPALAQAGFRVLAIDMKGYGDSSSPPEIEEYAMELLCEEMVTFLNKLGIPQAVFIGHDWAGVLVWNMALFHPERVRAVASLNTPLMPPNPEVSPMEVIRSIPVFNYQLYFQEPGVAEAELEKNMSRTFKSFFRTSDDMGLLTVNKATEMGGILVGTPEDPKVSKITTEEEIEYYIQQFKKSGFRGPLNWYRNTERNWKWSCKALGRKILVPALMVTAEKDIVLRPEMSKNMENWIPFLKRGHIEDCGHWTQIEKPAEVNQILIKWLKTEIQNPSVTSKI
Assay: Inhibition of rat recombinant sEH expressed in baculovirus infected insect Sf9 cells using cyano(6-methoxynaphthalen-2-yl)methyl trans-[(3-phenyloxiran-2-yl)methyl] carbonate as substrate preincubated for 30 mins followed by substrate addition measured after 20 to 45 mins by fluorescence assay
Settings: not given

Row | Structure (SMILES) | IC50
31 | O=C(Nc1ccc(OC(F)(F)F)cc1)N1CCCC2(CCN(C(=O)c3c(F)cccc3F)CC2)C1 | 3.3 nM
32 | O=C(Nc1ccc(C(F)(F)F)cc1)N1CCOC2(CCN(C(=O)c3ccc(Cl)cc3)CC2)C1 | 24.9 nM
33 | Cc1cnc(C(=O)N2CCC3(CC2)CN(C(=O)Nc2ccc(OC(F)(F)F)cc2)CCO3)cn1 | 8.8 nM
34 | O=C(Cc1ccccn1)N1CCC2(CC1)CN(C(=O)Nc1ccc(OC(F)(F)F)cc1)CCO2 | > 20 nM
35 | O=C(Nc1ccc(OC(F)(F)F)cc1)N1CCOC2(CCN(C(=O)c3ccccc3F)CC2)C1 | 9.3 nM
36 | Cc1cc(C(=O)N2CCC3(CC2)CN(C(=O)Nc2ccc(OC(F)(F)F)cc2)CCO3)no1 | 25.7 nM

Test system: Liver microsome
Assay: Metabolic stability in human liver microsomes measured per mg of protein
Format: ADME
Settings: not given

Row | Structure (SMILES) | CLint
37 | O=C(Nc1ccc(OC(F)(F)F)cc1)N1CCCC2(CCN(C(=O)c3c(F)cccc3F)CC2)C1 | 602 µL/min/mg
38 | O=C(Nc1ccc(C(F)(F)F)cc1)N1CCOC2(CCN(C(=O)c3ccc(Cl)cc3)CC2)C1 | 21 µL/min/mg
39 | Cc1cnc(C(=O)N2CCC3(CC2)CN(C(=O)Nc2ccc(OC(F)(F)F)cc2)CCO3)cn1 | 12 µL/min/mg
40 | O=C(Cc1ccccn1)N1CCC2(CC1)CN(C(=O)Nc1ccc(OC(F)(F)F)cc1)CCO2 | 132 µL/min/mg
41 | O=C(Nc1ccc(OC(F)(F)F)cc1)N1CCOC2(CCN(C(=O)c3ccccc3F)CC2)C1 | 30 µL/min/mg
42 | Cc1cc(C(=O)N2CCC3(CC2)CN(C(=O)Nc2ccc(OC(F)(F)F)cc2)CCO3)no1 | 47 µL/min/mg

Test system: not listed separately
Assay: Cmax in rat at 1 mg/kg, po
Format: ADME, organism-based
Parameters: dose 1 mg/kg, route oral
Settings: in vivo

Row | Structure (SMILES) | Cmax
43 | Cc1cnc(C(=O)N2CCC3(CC2)CN(C(=O)Nc2ccc(OC(F)(F)F)cc2)CCO3)cn1 | 8.64 ng/mL
44 | O=C(Nc1ccc(OC(F)(F)F)cc1)N1CCOC2(CCN(C(=O)c3ccccc3F)CC2)C1 | 20.4 ng/mL
45 | Cc1cc(C(=O)N2CCC3(CC2)CN(C(=O)Nc2ccc(OC(F)(F)F)cc2)CCO3)no1 | 9.58 ng/mL

Test system: not listed separately
Assay: Total clearance in rat at 0.2 mg/kg, iv
Format: ADME, organism-based
Parameters: dose 0.2 mg/kg, route intravenous
Settings: in vivo

Row | Structure (SMILES) | clearance
46 | Cc1cnc(C(=O)N2CCC3(CC2)CN(C(=O)Nc2ccc(OC(F)(F)F)cc2)CCO3)cn1 | 30.1 mL/min/kg
47 | O=C(Nc1ccc(OC(F)(F)F)cc1)N1CCOC2(CCN(C(=O)c3ccccc3F)CC2)C1 | 19.3 mL/min/kg
48 | Cc1cc(C(=O)N2CCC3(CC2)CN(C(=O)Nc2ccc(OC(F)(F)F)cc2)CCO3)no1 | 36.9 mL/min/kg

Test system: not listed separately
Assay: AUC (0 to infinity) in rat at 1 mg/kg, po
Format: ADME, organism-based
Parameters: time infinity, dose 1 mg/kg, route oral
Settings: plasma

Row | Structure (SMILES) | AUC(0-inf)
49 | Cc1cnc(C(=O)N2CCC3(CC2)CN(C(=O)Nc2ccc(OC(F)(F)F)cc2)CCO3)cn1 | 61.3 ng·h/mL
50 | O=C(Nc1ccc(OC(F)(F)F)cc1)N1CCOC2(CCN(C(=O)c3ccccc3F)CC2)C1 | 306 ng·h/mL
51 | Cc1cc(C(=O)N2CCC3(CC2)CN(C(=O)Nc2ccc(OC(F)(F)F)cc2)CCO3)no1 | 123 ng·h/mL

Test system: not listed separately
Assay: Volume of distribution at steady state in rat at 0.2 mg/kg, iv
Format: ADME, organism-based
Parameters: dose 0.2 mg/kg, route intravenous
Settings: in vivo, read-out: Vdss

Row | Structure (SMILES) | Vd
52 | Cc1cnc(C(=O)N2CCC3(CC2)CN(C(=O)Nc2ccc(OC(F)(F)F)cc2)CCO3)cn1 | 1.82 L/kg
53 | O=C(Nc1ccc(OC(F)(F)F)cc1)N1CCOC2(CCN(C(=O)c3ccccc3F)CC2)C1 | 3.56 L/kg
54 | Cc1cc(C(=O)N2CCC3(CC2)CN(C(=O)Nc2ccc(OC(F)(F)F)cc2)CCO3)no1 | 3.31 L/kg

Test system: not listed separately
Assay: Oral bioavailability in rat at 1 mg/kg
Format: ADME, organism-based
Settings: in vivo

Row | Structure (SMILES) | bioavailability
55 | Cc1cnc(C(=O)N2CCC3(CC2)CN(C(=O)Nc2ccc(OC(F)(F)F)cc2)CCO3)cn1 | 11.1%
56 | O=C(Nc1ccc(OC(F)(F)F)cc1)N1CCOC2(CCN(C(=O)c3ccccc3F)CC2)C1 | 35.4%
57 | Cc1cc(C(=O)N2CCC3(CC2)CN(C(=O)Nc2ccc(OC(F)(F)F)cc2)CCO3)no1 | 24.1%

Test system: Rattus norvegicus
Assay: Reduction of serum creatinine level in rat anti-glomerular basement membrane glomerulonephritis model at 30 mg/kg, po qd administered for 3 weeks
Format: functional, organism-based
Parameters: dose 30 mg/kg
Settings: not given

Row | Structure (SMILES) | Activity
58 | O=C(Nc1ccc(OC(F)(F)F)cc1)N1CCOC2(CCN(C(=O)c3ccccc3F)CC2)C1 | Active
